Laboratory results published in patent US20100099614A1, “Antimicrobial Peptides and Methods of Use” (priority 2008, published 2010).
≈ marks a conversion by molar mass, not a printed value. Where “and” joins values, the source holds several entries; their conditions need not be identical. Equal values may be shown once.

Assays:
[1] = test system: Absidia corymbifera (clinical isolate); conditions: mean of 2 sets
human red blood cells = test: Hemolytic activity (MHC50/HC50), 18 h microtiter dilution; format: cell-based; conditions: for Hemolytic activity Fold (fold improvement in HC50 compared to that of D4): relative to D4
Method: Hemoglobin release was determined spectrophotometrically at 570 nm. […] MHC50 was determined by plot the concentration-lysis format.

Interleukin-6 (IL-6) = test: Cytokine assay, stimulation of peripheral blood mononuclear cells, ELISA; format: cell-based, human
Method: (§1) Isolation of peripheral blood mononuclear cells (PBMCs) from 5 healthy individuals was performed as described elsewhere (108). Briefly, venous blood was drawn into 10 ml tubes containing 0.2 mg of EDTA (Monoject's-Hertogenbosch, NL). The PBMC fraction was obtained by density centrifugation of blood using Ficoll-Paque (Pharmacia Biotech AB, Sweden). […] The PBMCs were incubated in 96-well tissue culture plates (Greiner, Alphen, NL) at a concentration of 5×10^5 cells per well in a total volume of 200 μl, in the presence or absence of a set of stimuli in different experiments. […] After 24 h of incubation, the supernatants were collected and stored at -80° C. until analysis. Interleukin-6 (IL-6) and tumor necrosis factor (TNF) were measured by ELISA according to the manufacturer's protocol ([…], CLB, Amsterdam, NL). […] Agilent Technologies) with a linear AB gradient (0.2% acetonitrile/min) at a flow rate of 2 ml/min, where mobile phase A was 0.1% aqueous TFA in water and B was 0.1% TFA in acetonitrile. The purity of peptides was verified by analytical RP-HPLC. The peptides were further characterized by electrospray mass spectrometry and amino acid analysis.

[2] = test system: tumor necrosis factor (TNF); test: as above; format: cell-based, human
Method: as §1

Gram-negative bacteria = test: Antibacterial activity (MIC), microtiter dilution; format: cell-based
Method: MICs were determined by a standard microtiter dilution method in Mueller Hinton Broth (MHB). Serial dilutions of the 10× compound were added to the microtiter plates in a volume of 10 μL followed by 90 μL of bacteria for an inoculum of 5×10^5 colony-forming units (CFU)/mL. The plates were incubated at 37° C. for 24 h, and the MICs were determined as the lowest peptide concentration that inhibited growth. […]
Alternatively; minimal inhibitory concentrations were determined using a standard microtiter dilution method in a Mueller-Hinton (MH) medium. Briefly, cells were grown overnight at 37° C. in MH broth and diluted in the same medium. Serial dilutions of the peptides were added to the microtiter plates in a volume of 100 μl followed by 10 μl of bacteria for an initial cell concentration of 1×10^5 CFU/ml. Plates were incubated at 37° C. for 24 hours and MICs determined as the lowest peptide concentration that inhibited growth.

[3] = test system: Rhizopus microsporus (clinical isolate)
[4] = test system: Scedosporium prolificans (clinical isolate); test: Antifungal activity (MIC50/MIC90); format: cell-based
From the text: (§2) The filamentous fungal and yeast strains used in this study were either purchased from American Type Culture Collection, Manassas, Va. (ATCC) or were generous gifts from various institutions: Aspergillus nidulans (AZN 2867), Absidia corymbifera (clinical isolate), Rhizomucor spp. (clinical isolate), Rhizopus microsporus (clinical isolate), Rhizopus oryzae (AZN 8892), Scedosporium prolificans (clinical isolate), Candida albicans (ATCC 24433).
(§3) Fungal spores (final concentration 10^4 spores/ml) were suspended in ½ Potato Dextrose Broth (Difco), and the yeast strains were suspended at a starting A600=0.001 in the yeast complete medium YPG (1% yeast extract, 1% peptone, 2% glucose). The medium was supplemented with tetracycline (10 μg/ml) and cefotaxim (100 μg/ml), and dispensed by aliquots of 80 μl into wells of a microplate containing 20 μl of either water or the sample to be analyzed. Growth of fungi and yeasts was evaluated after 24 h at 30° C. by light microscopy and after 48 h by measuring the culture absorbance at 595 nm using a microplate reader. Under conditions where the antifungal assay was performed in the presence of salt, the ½ Potato Dextrose Broth medium was prepared in phosphate-buffered saline, 137 mM NaCl.
(§4) The procedure used for the determination of the minimal inhibitory concentration (MIC) was identical to that for the antifungal assay. The MIC values are expressed as the lowest peptide concentration that causes 90% or 50% growth inhibition. The fungicidal effects of the synthetic peptides in the MIC assay were verified by reinoculation of the yeasts in potato dextrose broth at the end of the incubation time.

[5] = test system: Aspergillus nidulans (AZN 2867); test: Antifungal activity (MIC50/MIC90); format: cell-based
From the text: as §2, §3, §4

[6] = test system: Candida albicans (ATCC 24433); test: Antifungal activity (MIC50/MIC90); format: cell-based
From the text: as §2, §3, §4

[7] = test system: Rhizomucor spp. (clinical isolate)
[8] = peptide concentration 0.01 μg/ml
[9] = peptide concentration 100 μg/ml

## CC[C@@H](C)[C@@H](NC(=O)[C@@H](C)NC(=O)[C@@H](CCCCN)NC(=O)[C@@H](CC(C)C)NC(=O)[C@@H](C)NC(=O)[C@H](NC(=O)[C@@H](Cc1c[nH]cn1)NC(=O)[C@@H](CC(C)C)NC(=O)[C@H](NC(=O)[C@H](NC(=O)[C@@H](CCCCN)NC(=O)[C@@H](CCCCN)NC(=O)[C@@H](C)NC(=O)[C@@H](CO)NC(=O)[C@@H](CCCCN)NC(=O)[C@@H](Cc1ccccc1)NC(=O)[C@H](NC(=O)[C@@H](CCCCN)NC(=O)[C@@H](CC(C)C)NC(=O)[C@@H](Cc1ccccc1)NC(=O)[C@@H](CO)NC(=O)[C@@H](CCCCN)NC(=O)[C@@H](Cc1c[nH]c2ccccc12)NC(=O)[C@@H](CCCCN)NC(C)=O)[C@H](C)O)[C@H](C)O)C(C)C)[C@H](C)O)C(=O)N[C@H](CO)C(=O)N[C@H](CO)C(N)=O [D1]
[1]; peptide concentration that inhibits 50% of fungal growth
  A. corymbifera MIC50: 12.5 µg/mL
[1]; peptide concentration that inhibits 90% of fungal growth
  A. corymbifera MIC90: 12.5 µg/mL
Human red blood cells; further experiments, 50% hemolysis of human red blood cells after 18 h
  Hemolytic activity HC50: 421.5 µg/mL
Human red blood cells; further experiments
  Hemolytic activity Fold (fold improvement in HC50 compared to that of D4): 120 fold
Human red blood cells; peptide concentration that produces 50% hemolysis of human red blood cells after 18 h, standard microtiter dilution method
  Hemolytic activity HC50: 1000 µg/mL and 1000.0 µg/mL
Human red blood cells
  Hemolytic activity Fold (fold improvement in HC50 compared to that of D4): 286 fold
Interleukin-6 (IL-6); [8]
  IL-6 Exp 1: <3 pg/mL
Interleukin-6 (IL-6); peptide concentration 0.01 μg/ml, Exp 2
  IL-6 Exp 2: <3 pg/mL
Interleukin-6 (IL-6); [9]
  IL-6 Exp 1: <3 pg/mL
[2]; [8]
  TNF Exp 1: <0.015 ng/mL
  TNF Exp 2: <0.015 ng/mL
[2]; peptide concentration 1 μg/ml
  TNF Exp 1: <0.015 ng/mL
  TNF Exp 2: <0.015 ng/mL
[2]; [9]
  TNF Exp 1: <0.015 ng/mL
  TNF Exp 2: <0.015 ng/mL
Gram-negative bacteria; E. coli C498 UB1005, MH medium, 37° C., 24 h
  MIC E. coli C498 UB1005: 2 µg/mL (≈ 0.669 µM)
Gram-negative bacteria; E. coli C857 DH5a, MH medium, 37° C., 24 h
  MIC E. coli C857 DH5a: 2 µg/mL (≈ 0.669 µM)
Gram-negative bacteria; E. coli UB1005, MH medium, 37° C., 24 h
  MIC E. coli UB1005: 4 µg/mL (≈ 1.34 µM)
Gram-negative bacteria; P. aeruginosa PAO1, Mueller-Hinton medium, 37° C., 24 h, four sets of determinations
  MIC P. aeruginosa PAO1: 8 µg/mL (≈ 2.68 µM)
Gram-negative bacteria; S. ryphimurium 14208S, MH medium, 37° C., 24 h
  MIC S. ryphimurium 14208S: 32 µg/mL (≈ 10.7 µM)
Gram-negative bacteria; S. ryphimurium C587 14208S, MH medium, 37° C., 24 h
  MIC S. ryphimurium C587 14208S: 4 µg/mL (≈ 1.34 µM)
Gram-negative bacteria; relative to D4
  Fold improvement in antimicrobial activity (geometric mean data) compared to that of D4, Gram-negative bacteria: 4.5 fold
Gram-negative bacteria; six Gram-negative strains, 128 μg/mL used where no activity at 64 μg/mL
  MIC GM (geometric mean of the MIC values), Gram-negative bacteria: 5.0 µg/mL
Gram-positive bacteria; B. subtilus C626, MH medium, 37° C., 24 h
  MIC B. subtilus C626: 32 µg/mL (≈ 10.7 µM)
Gram-positive bacteria; B. subtilus C971 ATCC6633, MH medium, 37° C., 24 h
  MIC B. subtilus C971 ATCC6633: 2 µg/mL (≈ 0.669 µM)
Gram-positive bacteria; E. jaecalis C625, MH medium, 37° C., 24 h
  MIC E. jaecalis C625: 32 µg/mL (≈ 10.7 µM)
Gram-positive bacteria; S. aureus C622 ATCC3923, MH medium, 37° C., 24 h
  MIC S. aureus C622 ATCC3923: 64 µg/mL (≈ 21.4 µM)
Gram-positive bacteria; S. aureus K147, MH medium, 37° C., 24 h
  MIC S. aureus K147: 64 µg/mL (≈ 21.4 µM)
Gram-positive bacteria; S. epidermidis C623, MH medium, 37° C., 24 h
  MIC S. epidermidis C623: 4 µg/mL (≈ 1.34 µM)
Gram-positive bacteria; relative to D4
  Fold improvement in antimicrobial activity (geometric mean data) compared to that of D4, Gram-positive bacteria: 0.9 fold
Gram-positive bacteria; six Gram-positive strains
  MIC GM (geometric mean of the MIC values), Gram-positive bacteria: 18.0 µg/mL
[3]; inhibits 50% of fungal growth
  R. micosporus MIC50: 6.3 µg/mL
[3]; inhibits 90% of fungal growth
  R. micosporus MIC90: 12.5 µg/mL
[4]; inhibits 50% of fungal growth
  S. prolificans MIC50: 50.0 µg/mL
[4]; inhibits 90% of fungal growth
  S. prolificans MIC90: 50.0 µg/mL
[5]; inhibits 50% of fungal growth
  A. nidulans MIC50: 9.4 µg/mL
[5]; inhibits 90% of fungal growth
  A. nidulans MIC90: 50.0 µg/mL
[6]; inhibits 50% of fungal growth
  C. albicans MIC50: 50.0 µg/mL
[6]; inhibits 90% of fungal growth
  C. albicans MIC90: 50.0 µg/mL
Ascomycota fungi; Ascomycota fungi
  fold less active than D4: 5 fold
Ascomycota fungi; relative to D4
  Fold improvement in antifungal activity (geometric mean data) compared to that of D4, Ascomycota fungi: 0.2 fold
Ascomycota fungi; three Ascomycota strains
  GM (geometric mean of the MIC50 values), Ascomycota fungi: 28.6 µg/mL
[7]; inhibits 50% of fungal growth
  Rhizomucor spp. MIC50: 4.7 µg/mL
[7]; inhibits 90% of fungal growth
  Rhizomucor spp. MIC90: 6.3 µg/mL
